According to patent US9551711B2, “Compositions and methods for detecting nitration of PKG-1α and methods of use thereof” (Augusta University Research Institute, Inc., priority 2013, dated 2017):

Experiments:
PKG-1α [1] = assay: PKG-1α nitration (IP, 3-NT immunoblot) in transfected HEK-293T cells; format: cell-based, human; settings: SIN-1 500 μM, 30 min
Description: Cells were homogenized in 3× weight/volume of IP buffer (25 mM Hepes, pH 7.5, 150 mM NaCl, 1% NP-40, 10 mM MgCl2, 1 mM EDTA, 2% glycerol, supplemented with protease inhibitor). The homogenates were then centrifuged at 20,000 g at 4° C. for 20 min, the supernatant was collected, and the protein concentration was quantified by the Bio-Rad DC Protein Assay. To 1000 μg of total protein, 4 μg of antibody against PKG-1α was added; the volume was brought to 1 ml with IP buffer, and the mixture was incubated at 4° C. overnight. To precipitate the bound protein, 30 μl of protein G plus agarose suspension (EMD biosciences, Inc., San Diego, Calif.) was added, and the samples were incubated for 2 h at 4° C. To collect the bead-bound antibody, the samples were then centrifuged at 2000 g for 5 min at 4° C., the supernatant was removed, and the beads were washed 3× with 500 μl of IP buffer. To the samples, 30 μl of 2× Laemmli buffer was added, and the samples were boiled for 5 min and then resolved using 4-20% Tris-SDS-Hepes PAGE. The membrane was then probed for 3-nitrotyrosine (1:100 dilution), as described above. The IP efficiency was normalized by re-probing for PKG-1α (1:500).
(§1) To determine the role of tyrosine 247 and tyrosine 425 in mediating the nitration dependent inhibition of PKG-1α kinase activity, Y247F- and Y425F-PKG-1α mutants were generated and expressed in HEK-293T cells. HEK-293T cells were transiently transfected with expression plasmids containing WT-, Y247F-, or Y425F-PKG-1α for 48 h. […] Protein extracts were immunoprecipitated using an antibody raised against PKG-1α and the level of nitrated PKG-1α determined by probing the membranes with an antiserum raised against 3-NT. The blots were then stripped and re-probed for PKG-1α to normalize for the efficiency of the immunoprecipitation.

PKG-1α [2] = biological target: T1, PKG-1α (Homo sapiens, UniProt Q13976); assay: PKG activity in transfected HEK-293T cells; format: cell-based; set-up: an expression plasmid containing a full length WT-PKG-1α cDNA; made in house; host or cells: HEK-293T; settings: HEK-293T expressing WT-PKG-1α; SIN-1 500 μM, 30 min
T1 sequence (Q13976 2-671): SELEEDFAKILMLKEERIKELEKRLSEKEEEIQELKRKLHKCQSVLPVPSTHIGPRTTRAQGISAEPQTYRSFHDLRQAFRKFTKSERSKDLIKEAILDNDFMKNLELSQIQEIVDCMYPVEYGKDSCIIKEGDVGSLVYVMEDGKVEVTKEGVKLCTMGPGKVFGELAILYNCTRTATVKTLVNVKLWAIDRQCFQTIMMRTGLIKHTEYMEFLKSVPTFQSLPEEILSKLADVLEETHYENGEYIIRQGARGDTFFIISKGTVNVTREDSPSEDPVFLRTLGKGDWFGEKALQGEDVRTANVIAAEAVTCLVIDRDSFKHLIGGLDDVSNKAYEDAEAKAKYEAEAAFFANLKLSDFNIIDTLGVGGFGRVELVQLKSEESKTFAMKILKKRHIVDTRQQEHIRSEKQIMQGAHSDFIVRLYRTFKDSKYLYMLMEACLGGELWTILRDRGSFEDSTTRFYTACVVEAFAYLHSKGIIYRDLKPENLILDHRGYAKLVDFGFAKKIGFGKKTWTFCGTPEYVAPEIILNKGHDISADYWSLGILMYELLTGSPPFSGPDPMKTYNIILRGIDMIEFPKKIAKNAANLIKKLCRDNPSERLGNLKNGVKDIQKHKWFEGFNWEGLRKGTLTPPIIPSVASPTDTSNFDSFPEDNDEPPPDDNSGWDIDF
Description: as §1
Total PKG activity was determined using a non-radioactive immunoassay in cell lysates, according to the manufacturer's directions. […]
After incubation for 30 min at 30° C. to allow the phosphorylation of the bound substrate, an HRP conjugated anti-phosphothreonine specific antibody was added to convert a chromogenic substrate to a colorimetric substrate that was subsequently read spectrophotometrically at 450 nm. The change in absorbance reflected the relative activity of PKG in the sample. […] The kinetic constants were determined using nonlinear regression (curve fit) analysis (GraphPad Prism Software Inc.).

3-NT-Y247-PKG-1α = 3-NT-Y247-PKG-1α immunoblot in transfected PASMC; format: cell-based, lamb; settings: SIN-1 500 μM, 30 min

cGMP dependent PKG activity (PKG-1α [2]): attenuated
Substance: 3-morpholinosydnonimine N-ethylcarbamide [SIN-1]
nitration of PKG-1α (3-NT/PKG-1α) (PKG-1α [1]; HEK-293T expressing WT-PKG-1α): significantly increased | nitration of PKG-1α (3-NT/PKG-1α) (PKG-1α [1]; HEK-293T expressing Y247F-PKG-1α): no significant increases | nitration of PKG-1α (3-NT/PKG-1α) (PKG-1α [1]; HEK-293T expressing Y425F-PKG-1α): no significant increases | PKG-1α nitration (3-NT-Y247-PKG-1α levels) (3-NT-Y247-PKG-1α; PASMC transfected with WT-PKG-1α): significantly increased | nitration levels of 3-NT-Y247-PKG-1α (3-NT-Y247-PKG-1α; PASMC, second construct of FIG. 4A): no significant increases
